Test results as given in patent publication US8431556B2, “C-21-keto lupane derivatives preparation and use thereof” (Vertex Pharmaceuticals Incorporated, priority 2008, dated 2013).

system: HIV-1 (HIVIIIB); assay: HIV-1 replication in MT2 cell line with and without 30% human serum (viral RT activity in supernatant); assay type: cell-based; settings: Human immunodeficiency virus 1, MT2, MT-2 cells, with 30% human serum, average IC50 if tested more than once, read-out: MT-2 (HIVIIIB) with 30% HS IC50 range
Procedure: HIV-1 Replication in MT2 cell line with and without 30% human serum: The cells are infected at a Multiciplicity of Infection (MOI) of 0.5 for 3 h and then washed twice with complete media to remove residual virus. Cells are then resuspended at 0.5×10^6/ml in complete medium (RPMI, 10% FBS, 1% sodium pyruvate), and seeded into 96-well plates (6.25×10^4/well). The cells are cultured in the presence or absence of various concentrations of test compounds in serial dilutions for 3 days at 37° C. The test compounds are serially diluted in complete medium supplemented or not with 30% human serum. After 3 days, 100 μL of cultured medium with cells are replaced with 120 μL of freshly diluted test compounds in complete medium containing or not 30% Human serum. The level of HIV-1 replication is determined at days 5 after infection by the presence of viral RT activity in harvested supernatant fluid. The IC50 and IC90 values for the virus replication are determined by using GRAPHPAD PRISM software.
The IC50 of the compounds tested in accordance with the HIV replication activity assay MT-2 (HIVIIIB) are represented in Table 4 (without HS) and Table 5 (with 30% HS)

`CC(C)C1=C2[C@H]3CC[C@@H]4[C@@]5(C)CC[C@H](OC(=O)CC(C)(C)C(=O)O)C(C)(C)[C@@H]5CC[C@@]4(C)[C@]3(C)CC[C@@]2(C(=O)Nc2ccncc2)CC1=O` [9-52, 3β-O-(3′,3′-Dimethylsuccinyl)-21-oxolup-18-en-28-oic acid N-pyridin-4-yl-acetamide] and `CC(C)C1=C2[C@H]3CC[C@@H]4[C@@]5(C)CC[C@H](OC(=O)CC(C)(C)C(=O)O)C(C)(C)[C@@H]5CC[C@@]4(C)[C@]3(C)CC[C@@]2(C(=O)Nc2ccncn2)CC1=O` [9-64, 3β-O-(3′,3′-Dimethylsuccinyl)-21-oxolup-18-en-28-oic acid N-pyrimidin-4-yl-acetamide] cannot be ordered by IC50: under 199 nM for the first, under 199 nM for the second.

`CC(C)C1=C2[C@H]3CC[C@@H]4[C@@]5(C)CC[C@H](OC(=O)CC(C)(C)C(=O)O)C(C)(C)[C@@H]5CC[C@@]4(C)[C@]3(C)CC[C@@]2(C(=O)Nc2ccn(C)n2)CC1=O` [9-53, 3β-O-(3′,3′-Dimethylsuccinyl)-21-oxolup-18-en-28-oic acid N-3-amino-1-methyl-1H-pyrazole-acetamide] and `CC(C)C1=C2[C@H]3CC[C@@H]4[C@@]5(C)CC[C@H](OC(=O)CC(C)(C)C(=O)O)C(C)(C)[C@@H]5CC[C@@]4(C)[C@]3(C)CC[C@@]2(C(=O)Nc2cnn(C)c2)CC1=O` [9-57, 3β-O-(3′,3′-Dimethylsuccinyl)-21-oxolup-18-en-28-oic acid N-4-amino-1-methyl-1H-pyrazole acetamide] cannot be ordered by IC50: under 199 nM for the first, under 199 nM for the second.

First: CC(C)C1=C2[C@H]3CC[C@@H]4[C@@]5(C)CC[C@H](OC(=O)CC(C)(C)C(=O)O)C(C)(C)[C@@H]5CC[C@@]4(C)[C@]3(C)CC[C@@]2(C(=O)Nc2ccnn2C)CC1=O [9-54, 3β-O-(3′,3′-Dimethylsuccinyl)-21-oxolup-18-en-28-oic acid N-5-amino-1-methyl-1H-pyrazole acetamide]
Second: CC(C)C1=C2[C@H]3CC[C@@H]4[C@@]5(C)CC[C@H](OC(=O)CC(C)(C)C(=O)O)C(C)(C)[C@@H]5CC[C@@]4(C)[C@]3(C)CC[C@@]2(C(=O)Nc2nnnn2C)CC1=O [9-66, 3β-O-(3′,3′-Dimethylsuccinyl)-21-oxolup-18-en-28-oic acid N-(1-methyl-1H-tetrazol-5-yl)-acetamide]
The IC50 of the first is lower: under 199 nM for the first, 200 to 999 nM for the second.

`Cc1ncncc1NC(=O)[C@@]12CC[C@]3(C)[C@H](CC[C@@H]4[C@@]5(C)CC[C@H](OC(=O)CC(C)(C)C(=O)O)C(C)(C)[C@@H]5CC[C@]43C)C1=C(C(C)C)C(=O)C2` [9-55, 3β-O-(3′,3′-Dimethylsuccinyl)-21-oxolup-18-en-28-oic acid N-4-methyl-pyrimidin-5-yl-acetamide] and `Cc1ccnc(NC(=O)[C@@]23CC[C@]4(C)[C@H](CC[C@@H]5[C@@]6(C)CC[C@H](OC(=O)CC(C)(C)C(=O)O)C(C)(C)[C@@H]6CC[C@]54C)C2=C(C(C)C)C(=O)C3)n1` [9-56, 3β-O-(3′,3′-Dimethylsuccinyl)-21-oxolup-18-en-28-oic acid N-4-methyl-pyrimidin-2-yl-acetamide] cannot be ordered by IC50: under 199 nM for the first, under 199 nM for the second.

First: Cc1cc(C)nc(NC(=O)[C@@]23CC[C@]4(C)[C@H](CC[C@@H]5[C@@]6(C)CC[C@H](OC(=O)CC(C)(C)C(=O)O)C(C)(C)[C@@H]6CC[C@]54C)C2=C(C(C)C)C(=O)C3)n1 [9-58, 3β-O-(3′,3′-Dimethylsuccinyl)-21-oxolup-18-en-28-oic acid N-4,6-dimethyl-pyrimidin-2-yl-acetamide]
Second: Cc1nnc(NC(=O)[C@@]23CC[C@]4(C)[C@H](CC[C@@H]5[C@@]6(C)CC[C@H](OC(=O)CC(C)(C)C(=O)O)C(C)(C)[C@@H]6CC[C@]54C)C2=C(C(C)C)C(=O)C3)o1 [9-62, 3β-O-(3′,3′-Dimethylsuccinyl)-21-oxolup-18-en-28-oic acid N-(5-methyl-[1,3,4]oxadiazol-2-yl)-acetamide]
The IC50 of the first is lower: under 199 nM for the first, 200 to 999 nM for the second. The first is the more potent here.

`CC(C)C1=C2[C@H]3CC[C@@H]4[C@@]5(C)CC[C@H](OC(=O)CC(C)(C)C(=O)O)C(C)(C)[C@@H]5CC[C@@]4(C)[C@]3(C)CC[C@@]2(C(=O)Nc2cnccn2)CC1=O` [9-59, 3β-O-(3′,3′-Dimethylsuccinyl)-21-oxolup-18-en-28-oic acid N-pyrazin-2-yl-acetamide] and `CC(C)C1=C2[C@H]3CC[C@@H]4[C@@]5(C)CC[C@H](OC(=O)CC(C)(C)C(=O)O)C(C)(C)[C@@H]5CC[C@@]4(C)[C@]3(C)CC[C@@]2(C(=O)Nc2nccc(C(F)(F)F)n2)CC1=O` [9-72, 3β-O-(3′,3′-Dimethylsuccinyl)-21-oxolup-18-en-28-oic acid N-4-trifluoro-pyrimidin-2-yl-acetamide] cannot be ordered by IC50: under 199 nM for the first, under 199 nM for the second.

`CC(C)C1=C2[C@H]3CC[C@@H]4[C@@]5(C)CC[C@H](OC(=O)CC(C)(C)C(=O)O)C(C)(C)[C@@H]5CC[C@@]4(C)[C@]3(C)CC[C@@]2(C(=O)Nc2cnc3ccccc3c2)CC1=O` [9-60, 3β-O-(3′,3′-Dimethylsuccinyl)-21-oxolup-18-en-28-oic acid N-quinolin-3-yl-acetamide] and `CC(C)C1=C2[C@H]3CC[C@@H]4[C@@]5(C)CC[C@H](OC(=O)CC(C)(C)C(=O)O)C(C)(C)[C@@H]5CC[C@@]4(C)[C@]3(C)CC[C@@]2(C(=O)Nc2cncc3ccccc23)CC1=O` [9-63, 3β-O-(3′,3′-Dimethylsuccinyl)-21-oxolup-18-en-28-oic acid N-isoquinolin-4-yl-acetamide] cannot be ordered by IC50: under 199 nM for the first, under 199 nM for the second.

`CC(C)C1=C2[C@H]3CC[C@@H]4[C@@]5(C)CC[C@H](OC(=O)CC(C)(C)C(=O)O)C(C)(C)[C@@H]5CC[C@@]4(C)[C@]3(C)CC[C@@]2(C(=O)NCCN2CCCC2)CC1=O` [9-61, 3β-O-(3′,3′-Dimethylsuccinyl)-21-oxolup-18-en-28-oic acid N-(2-pyrrolidin-1-yl-ethyl)-acetamide] and `CC(C)C1=C2[C@H]3CC[C@@H]4[C@@]5(C)CC[C@H](OC(=O)CC(C)(C)C(=O)O)C(C)(C)[C@@H]5CC[C@@]4(C)[C@]3(C)CC[C@@]2(C(=O)N2CCC2)CC1=O` [9-70, 3β-O-(3′,3′-Dimethylsuccinyl)-21-oxolup-18-en-28-oic acid N-azetidine-1 acetamide] cannot be ordered by IC50: under 199 nM for the first, under 199 nM for the second.

`CC(C)C1=C2[C@H]3CC[C@@H]4[C@@]5(C)CC[C@H](OC(=O)CC(C)(C)C(=O)O)C(C)(C)[C@@H]5CC[C@@]4(C)[C@]3(C)CC[C@@]2(C(=O)Nc2ccccc2C(F)(F)F)CC1=O` [9-65, 3β-O-(3′,3′-Dimethylsuccinyl)-21-oxolup-18-en-28-oic acid N-2-trifluoromethyl-phen-1-yl acetamide] and `CC(C)C1=C2[C@H]3CC[C@@H]4[C@@]5(C)CC[C@H](OC(=O)CC(C)(C)C(=O)O)C(C)(C)[C@@H]5CC[C@@]4(C)[C@]3(C)CC[C@@]2(C(=O)NCC(F)(F)F)CC1=O` [9-71, 3β-O-(3′,3′-Dimethylsuccinyl)-21-oxolup-18-en-28-oic acid N-(2,2,2-trifluoro-ethyl)-acetamide] cannot be ordered by IC50: under 199 nM for the first, under 199 nM for the second.

`CCOC(=O)NC1CCN(C(=O)[C@@]23CC[C@]4(C)[C@H](CC[C@@H]5[C@@]6(C)CC[C@H](OC(=O)CC(C)(C)C(=O)O)C(C)(C)[C@@H]6CC[C@]54C)C2=C(C(C)C)C(=O)C3)CC1` [9-67, 3β-O-(3′,3′-Dimethylsuccinyl)-21-oxolup-18-en-28-oic acid N-(4-aminocarboxylic acid ethyl ester-1-piperidine)-acetamide] and `CC(C)OC(=O)NC1CCN(C(=O)[C@@]23CC[C@]4(C)[C@H](CC[C@@H]5[C@@]6(C)CC[C@H](OC(=O)CC(C)(C)C(=O)O)C(C)(C)[C@@H]6CC[C@]54C)C2=C(C(C)C)C(=O)C3)CC1` [9-68, 3β-O-(3′,3′-Dimethylsuccinyl)-21-oxolup-18-en-28-oic acid N-(4-aminocarboxylic acid isopropyl ester-1-piperidine)-acetamide] cannot be ordered by IC50: under 199 nM for the first, under 199 nM for the second.

`CC(C)C1=C2[C@H]3CC[C@@H]4[C@@]5(C)CC[C@H](OC(=O)CC(C)(C)C(=O)O)C(C)(C)[C@@H]5CC[C@@]4(C)[C@]3(C)CC[C@@]2(C(=O)NCC2CC2)CC1=O` [9-69, 3β-O-(3′,3′-Dimethylsuccinyl)-21-oxolup-18-en-28-oic acid N-cyclopropylmethyl acetamide] and `CC(C)C1=C2[C@H]3CC[C@@H]4[C@@]5(C)CC[C@H](OC(=O)CC(C)(C)C(=O)O)C(C)(C)[C@@H]5CC[C@@]4(C)[C@]3(C)CC[C@@]2(C(=O)NC(C)(C)C2CC2)CC1=O` [9-73, 3β-O-(3′,3′-Dimethylsuccinyl)-21-oxolup-18-en-28-oic acid N-(1-cyclopropyl-1-methyl-ethyl)-acetamide] cannot be ordered by IC50: under 199 nM for the first, under 199 nM for the second.

`CC(C)C1=C2[C@H]3CC[C@@H]4[C@@]5(C)CC[C@H](OC(=O)CC(C)(C)C(=O)O)C(C)(C)[C@@H]5CC[C@@]4(C)[C@]3(C)CC[C@@]2(C(=O)N2CCC(N(C)C)CC2)CC1=O` [9-74, 3β-O-(3′,3′-Dimethylsuccinyl)-21-oxolup-18-en-28-oic acid N-(4-dimethylamino-piperidin-1-yl)-acetamide] and `CC(C)C1=C2[C@H]3CC[C@@H]4[C@@]5(C)CC[C@H](OC(=O)CC(C)(C)C(=O)O)C(C)(C)[C@@H]5CC[C@@]4(C)[C@]3(C)CC[C@@]2(C(=O)NC(C)C(F)(F)F)CC1=O` (stereo partly drawn) [9-75, 3β-O-(3′,3′-Dimethylsuccinyl)-21-oxolup-18-en-28-oic acid N-(2,2,2-trifluoro-1-methyl-ethyl)-acetamide] cannot be ordered by IC50: under 199 nM for the first, under 199 nM for the second.
